Here are results for three compounds from patent US8252942B2, “Substituted imidazoline compounds” (Board of Trustees of Michigan State University, priority 2008, dated 2012).

For one data set, the system named is RPMI-8226 cells. The experiment in a line: Cell death in multiple myeloma cells, MTS assay. It is filed as cell-based. As to conditions: Homo sapiens, RPMI-8226, 24 h. The protocol: RPMI-8226 cells were treated with various concentrations of TCH-013 in duplicate and incubated for 24 hours. Percent survival was extrapolated based on mitochondrial activity as determined by MTS assay.
(§1) Given the critical role NF-κB-mediated IL-6 production plays in the growth and […] of multiple myeloma, we investigated the use of TCH-013 in somewhat more detail in a MM cell line (RPMI-8226).
In general terms: Tetrazolium assays rely on reduction of a dye to a coloured formazan, in cell work by metabolically active cells.

The test system of data set [1] is white blood cells (lymphocytes) in human blood. The experiment in a line: Cytotoxicity towards lymphocytes in human blood. As to conditions: human blood exposed 24 hours, lymphocyte survival, effective concentrations (<20 μM) (FIG. 11). The format is cell-based. As to the method:
Human blood was exposed to TCH-013 (imidazoline 1) for 24 hours at various concentrations and the lymphocytes were evaluated for survival.
as §1

Take `N[C@@H](Cc1ccc(N(CCCl)CCCl)cc1)C(=O)O` [melphalan]: the 50% cytotoxic concentration (CC50) (commonly the concentration that lowers cell viability or growth by half) with RPMI-8226 cells was determined as 30.6 µM.
Consider `COc1cccc2c1C(=O)c1c(O)c3c(c(O)c1C2=O)C[C@@](O)(C(=O)CO)C[C@@H]3O[C@H]1C[C@H](N)[C@H](O)[C@H](C)O1` [doxorubicin], for which it took 1.2 µM to reach half-maximal cytotoxicity with RPMI-8226 cells (CC50).
In the case of `CCOC(=O)[C@@]1(c2ccccc2)N=C(c2ccccc2)N(Cc2ccccc2)[C@H]1c1ccccc1` (racemic) [TCH-013], the CC50 in the data set with RPMI-8226 cells worked out at 4 µM. For the same compound, the “cytotoxicity towards white blood cells” value in data set [1] was “no significant cytotoxicity”.
